Measured values reported in ChEMBL document CHEMBL1134041, “Imide and lactam derivatives of N-benzylpyroglutamyl-L-phenylalanine as VCAM/VLA-4 antagonists” (Bioorg Med Chem Lett, 2001).

Experiments:
[1] = molecular target: T1, Integrin alpha-4/beta-1 (Homo sapiens, UniProt P05556+P13612); test: Inhibition of human VCAM binding to VLA-4 of Ramos cells in ELISA; format: cell-based
[2] = molecular target: T1, Integrin alpha-4/beta-1; test: Inhibition of human VCAM and Ramos cell VLA-4 interaction; format: cell-based

T1 sequence (P05556 whole entry): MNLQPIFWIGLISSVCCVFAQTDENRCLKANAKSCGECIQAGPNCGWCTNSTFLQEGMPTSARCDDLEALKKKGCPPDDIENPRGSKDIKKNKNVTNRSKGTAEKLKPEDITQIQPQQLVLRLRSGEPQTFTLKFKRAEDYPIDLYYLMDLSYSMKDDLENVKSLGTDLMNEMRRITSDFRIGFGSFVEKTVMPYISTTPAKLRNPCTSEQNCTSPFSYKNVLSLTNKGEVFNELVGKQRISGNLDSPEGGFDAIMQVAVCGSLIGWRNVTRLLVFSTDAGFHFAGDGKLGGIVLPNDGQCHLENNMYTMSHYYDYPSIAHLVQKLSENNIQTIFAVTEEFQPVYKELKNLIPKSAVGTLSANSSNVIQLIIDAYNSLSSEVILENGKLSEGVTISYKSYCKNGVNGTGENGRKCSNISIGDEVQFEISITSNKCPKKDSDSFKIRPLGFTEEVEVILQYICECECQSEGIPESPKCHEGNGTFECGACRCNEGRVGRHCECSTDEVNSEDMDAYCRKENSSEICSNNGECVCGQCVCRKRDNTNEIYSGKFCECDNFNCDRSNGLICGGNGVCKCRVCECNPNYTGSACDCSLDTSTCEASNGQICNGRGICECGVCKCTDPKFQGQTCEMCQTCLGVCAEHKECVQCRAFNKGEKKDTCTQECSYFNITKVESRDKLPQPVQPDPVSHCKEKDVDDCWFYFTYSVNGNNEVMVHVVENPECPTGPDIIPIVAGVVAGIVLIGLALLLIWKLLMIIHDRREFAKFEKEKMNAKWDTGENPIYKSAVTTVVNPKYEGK
T1 sequence (P13612 whole entry): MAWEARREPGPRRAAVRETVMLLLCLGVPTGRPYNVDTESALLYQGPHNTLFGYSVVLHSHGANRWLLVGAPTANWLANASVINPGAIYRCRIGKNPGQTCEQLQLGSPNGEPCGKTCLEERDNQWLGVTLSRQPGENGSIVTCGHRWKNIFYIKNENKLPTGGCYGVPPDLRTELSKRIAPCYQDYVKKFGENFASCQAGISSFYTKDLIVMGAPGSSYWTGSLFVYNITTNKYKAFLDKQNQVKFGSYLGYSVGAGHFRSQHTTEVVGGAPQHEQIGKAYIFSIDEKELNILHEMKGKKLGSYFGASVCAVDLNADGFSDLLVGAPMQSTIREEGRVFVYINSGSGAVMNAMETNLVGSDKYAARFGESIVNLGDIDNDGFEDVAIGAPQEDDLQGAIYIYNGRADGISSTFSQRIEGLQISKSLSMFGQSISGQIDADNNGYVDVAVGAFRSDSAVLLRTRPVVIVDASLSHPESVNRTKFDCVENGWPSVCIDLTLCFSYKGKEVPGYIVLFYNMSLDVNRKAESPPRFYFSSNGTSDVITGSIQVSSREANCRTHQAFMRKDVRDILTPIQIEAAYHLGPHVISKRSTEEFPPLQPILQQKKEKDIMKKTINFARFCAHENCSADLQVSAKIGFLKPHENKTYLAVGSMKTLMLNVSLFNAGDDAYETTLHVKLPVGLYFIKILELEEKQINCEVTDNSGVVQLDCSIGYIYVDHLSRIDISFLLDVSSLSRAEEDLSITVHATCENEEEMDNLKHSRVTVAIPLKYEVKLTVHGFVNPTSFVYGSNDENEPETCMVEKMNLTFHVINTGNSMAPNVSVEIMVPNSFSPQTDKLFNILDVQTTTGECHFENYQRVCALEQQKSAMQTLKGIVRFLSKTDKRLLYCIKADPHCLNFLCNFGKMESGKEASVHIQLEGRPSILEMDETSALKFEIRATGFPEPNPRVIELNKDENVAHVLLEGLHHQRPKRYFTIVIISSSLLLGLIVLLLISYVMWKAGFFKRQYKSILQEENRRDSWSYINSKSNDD

| IC50 [1] | IC50 [2] | SMILES |
| --- | --- | --- |
| 0.98 nM | 107 nM | O=C(O)[C@H](Cc1ccc(N2C(=O)Cc3ccccc3C2=O)cc1)NC(=O)[C@@H]1CCC(=O)N1Cc1ccccc1 |
| 16 nM |  | O=C(O)[C@H](Cc1ccc(N2CCCC2=O)cc1)NC(=O)[C@@H]1CCC(=O)N1Cc1ccccc1 |
| 0.94 nM | 123 nM | O=C(O)[C@H](Cc1ccc(N2C(=O)CC(Cc3ccccc3)C2=O)cc1)NC(=O)[C@@H]1CCC(=O)N1Cc1ccccc1 (stereo not given in full) |
| 1.7 nM | 92 nM | O=C(O)[C@H](Cc1ccc(N2C(=O)CC(c3ccccc3)C2=O)cc1)NC(=O)[C@@H]1CCC(=O)N1Cc1ccccc1 (stereo not given in full) |
| 0.76 nM | 41 nM | CC(C)CC1CC(=O)N(c2ccc(C[C@H](NC(=O)[C@@H]3CCC(=O)N3Cc3ccccc3)C(=O)O)cc2)C1=O (stereo not given in full) |
| 4.3 nM | 650 nM | O=C(O)[C@H](Cc1ccc(N2C(=O)c3ccncc3C2=O)cc1)NC(=O)[C@@H]1CCC(=O)N1Cc1ccccc1 |
| 2.6 nM | 420 nM | O=C(O)[C@H](Cc1ccc(N2C(=O)CC(c3ccc(O)cc3)C2=O)cc1)NC(=O)[C@@H]1CCC(=O)N1Cc1ccccc1 (stereo not given in full) |
| 2.7 nM | 500 nM | O=C(O)[C@H](Cc1ccc(N2Cc3ccccc3C2=O)cc1)NC(=O)[C@@H]1CCC(=O)N1Cc1ccccc1 |
| 0.52 nM | 20 nM | O=C(O)[C@H](Cc1ccc(N2C(=O)c3ccccc3C2=O)cc1)NC(=O)[C@@H]1CCC(=O)N1Cc1ccccc1 |
| 0.37 nM | 12 nM | O=C(Nc1ccc(C[C@H](NC(=O)[C@@H]2CCC(=O)N2Cc2ccccc2)C(=O)O)cc1)c1c(Cl)cccc1Cl |
| 0.54 nM | 57 nM | O=C(O)[C@H](Cc1ccc(N2C(=O)CC3(CCCC3)CC2=O)cc1)NC(=O)[C@@H]1CCC(=O)N1Cc1ccccc1 |
| 3.2 nM | 286 nM | O=C(O)[C@H](Cc1ccc(N2C(=O)CCC2=O)cc1)NC(=O)[C@@H]1CCC(=O)N1Cc1ccccc1 |
| 0.99 nM | 184 nM | O=C(O)[C@H](Cc1ccc(N2C(=O)CCC(c3ccccc3)C2=O)cc1)NC(=O)[C@@H]1CCC(=O)N1Cc1ccccc1 (stereo not given in full) |
